Test results reported in PubChem BioAssay (NCI).
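Five compound concentrations were applied to cells in 96-well plates for 48 hours; endpoints were derived by simple linear interpolation of the resulting dose-response curve. The concentration for 50% growth inhibition is given as GI50. At the TGI there is no net growth.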

Legend:
Test in all cases: growth of human tumour cells (NCI), 48 h
A498 renal = system: A498 renal
SK-OV-3 ovarian = system: SK-OV-3 ovarian
OVCAR-3 ovarian = system: OVCAR-3 ovarian
M14 melanoma = system: M14 melanoma
MOLT-4 leukemia = system: MOLT-4 leukemia
HCC-2998 colon = system: HCC-2998 colon
A549 NSCLC = system: A549 NSCLC
U251 CNS = system: U251 CNS
BT-549 breast = system: BT-549 breast
MDA-MB-231 breast = system: MDA-MB-231 breast

CCOc1ccc(NC(=O)CCc2nnc(SC)o2)cc1
TGI (A498 renal): > 100 µM | TGI (SK-OV-3 ovarian): > 100 µM | TGI (OVCAR-3 ovarian): > 100 µM | TGI (M14 melanoma): > 100 µM | TGI (MOLT-4 leukemia): > 100 µM | TGI (HCC-2998 colon): > 100 µM | TGI (A549 NSCLC): > 100 µM | TGI (U251 CNS): > 100 µM

C1CSCCSCCCSCCSCCCSCCSCCCSCCSC1
TGI (A498 renal): > 100 µM | TGI (SK-OV-3 ovarian): > 100 µM | TGI (BT-549 breast): > 100 µM | TGI (OVCAR-3 ovarian): > 100 µM | TGI (M14 melanoma): > 100 µM | TGI (MOLT-4 leukemia): > 100 µM | TGI (HCC-2998 colon): > 100 µM | TGI (A549 NSCLC): > 100 µM | TGI (U251 CNS): > 100 µM

Cc1cc2c(c(C(N)=O)c1C)-c1cc(Cl)cc(Cl)c1C2=O
TGI (A498 renal): > 100 µM | TGI (SK-OV-3 ovarian): > 100 µM | TGI (OVCAR-3 ovarian): > 100 µM | TGI (M14 melanoma): > 100 µM | TGI (MOLT-4 leukemia): > 100 µM | TGI (HCC-2998 colon): > 100 µM | TGI (U251 CNS): > 100 µM

c1cc(-c2cn3c(n2)SCC3)ccn1
TGI (A498 renal): > 100 µM | TGI (SK-OV-3 ovarian): > 100 µM | TGI (OVCAR-3 ovarian): > 100 µM | TGI (M14 melanoma): > 100 µM | TGI (MOLT-4 leukemia): > 100 µM | TGI (HCC-2998 colon): > 100 µM | TGI (A549 NSCLC): > 100 µM | TGI (U251 CNS): > 100 µM

O=C1c2ccccc2N2OC3(N4CCCC4)CCCCC3C12c1ccccc1 (centres undefined)
TGI (A498 renal): > 100 µM | TGI (SK-OV-3 ovarian): > 100 µM | TGI (M14 melanoma): 34.6 µM | TGI (MOLT-4 leukemia): > 100 µM | TGI (HCC-2998 colon): > 100 µM | TGI (A549 NSCLC): 52.1 µM | TGI (U251 CNS): > 100 µM

N#CC1(C#N)C(c2ccccc2)C=CC12OCCCO2 (centres undefined)
TGI (A498 renal): > 100 µM | TGI (SK-OV-3 ovarian): > 100 µM | TGI (OVCAR-3 ovarian): > 100 µM | TGI (M14 melanoma): > 100 µM | TGI (MOLT-4 leukemia): 98.1 µM | TGI (HCC-2998 colon): > 100 µM | TGI (A549 NSCLC): > 100 µM | TGI (U251 CNS): > 100 µM

O=C(/C=C/c1ccc(Cl)c(Cl)c1)c1cccc2ccccc12
TGI (A498 renal): 38 µM | TGI (SK-OV-3 ovarian): 35.2 µM | TGI (OVCAR-3 ovarian): 18.6 µM | TGI (M14 melanoma): 30.9 µM | TGI (HCC-2998 colon): 22.4 µM | TGI (A549 NSCLC): 45.2 µM | TGI (U251 CNS): 6.89 µM

Cc1ccccc1-n1c(N)c(-c2nc3ccccc3[nH]2)sc1=S
TGI (A498 renal): > 100 µM | TGI (SK-OV-3 ovarian): 72.6 µM | TGI (OVCAR-3 ovarian): 41.1 µM | TGI (M14 melanoma): 36.5 µM | TGI (MOLT-4 leukemia): 70.6 µM | TGI (HCC-2998 colon): 34.8 µM | TGI (A549 NSCLC): 71.3 µM

O=C(Cc1nc2ccccc2o1)C(=O)Nc1cccc(C(F)(F)F)c1
TGI (A498 renal): > 100 µM | TGI (SK-OV-3 ovarian): > 100 µM | TGI (OVCAR-3 ovarian): > 100 µM | TGI (M14 melanoma): > 100 µM | TGI (MOLT-4 leukemia): > 100 µM | TGI (HCC-2998 colon): > 100 µM | TGI (A549 NSCLC): > 100 µM | TGI (U251 CNS): > 100 µM

Fc1cccc(F)c1C(Nc1nncs1)Nc1nncs1
TGI (A498 renal): > 100 µM | TGI (SK-OV-3 ovarian): > 100 µM | TGI (BT-549 breast): > 100 µM | TGI (OVCAR-3 ovarian): > 100 µM | TGI (M14 melanoma): > 100 µM | TGI (HCC-2998 colon): > 100 µM | TGI (A549 NSCLC): > 100 µM | TGI (MDA-MB-231 breast): > 100 µM | TGI (U251 CNS): > 100 µM

CC(=O)/C(=C\c1ccccc1O)C(=O)Nc1ccccc1C
TGI (SK-OV-3 ovarian): > 100 µM | TGI (OVCAR-3 ovarian): 72 µM | TGI (M14 melanoma): 39.9 µM | TGI (MOLT-4 leukemia): 70.1 µM | TGI (HCC-2998 colon): 29.3 µM | TGI (A549 NSCLC): 89.1 µM | TGI (U251 CNS): 24.7 µM

CC1=NN(c2ccccc2)C(=O)/C1=C\c1ccc([N+](=O)[O-])cc1
TGI (A498 renal): 56.2 µM | TGI (SK-OV-3 ovarian): 58.7 µM | TGI (M14 melanoma): > 100 µM | TGI (MOLT-4 leukemia): 48.4 µM | TGI (HCC-2998 colon): 63.2 µM | TGI (A549 NSCLC): > 100 µM | TGI (U251 CNS): > 100 µM

COc1ccc(-c2cc(=O)c3c(O)cccc3o2)c(OC)c1OC
TGI (A498 renal): 82.9 µM | TGI (SK-OV-3 ovarian): > 100 µM | TGI (OVCAR-3 ovarian): > 100 µM | TGI (M14 melanoma): > 100 µM | TGI (MOLT-4 leukemia): > 100 µM | TGI (HCC-2998 colon): > 100 µM | TGI (A549 NSCLC): > 100 µM | TGI (U251 CNS): > 100 µM

ClC1=C(Cl)C(Cl)(Cl)c2c3c(c4c(c21)C(Cl)(Cl)C(Cl)=C4Cl)C(Cl)(Cl)C(Cl)=C3Cl
TGI (SK-OV-3 ovarian): > 100 µM | TGI (OVCAR-3 ovarian): > 100 µM | TGI (M14 melanoma): > 100 µM | TGI (MOLT-4 leukemia): > 100 µM | TGI (HCC-2998 colon): > 100 µM | TGI (A549 NSCLC): > 100 µM | TGI (U251 CNS): > 100 µM

CC(C)(C)c1cc2nc(c1)C(C(F)(F)F)(C(F)(F)F)OB(Br)OC2(C(F)(F)F)C(F)(F)F
TGI (SK-OV-3 ovarian): 10.7 µM | TGI (M14 melanoma): 3.38 µM | TGI (MOLT-4 leukemia): 0.28 µM | TGI (HCC-2998 colon): 11.4 µM | TGI (A549 NSCLC): 6.77 µM | TGI (U251 CNS): 1.37 µM

N[C@H](COCc1ccccc1)c1ccccc1
TGI (A498 renal): 88.2 µM | TGI (SK-OV-3 ovarian): > 100 µM | TGI (OVCAR-3 ovarian): > 76.2 µM | TGI (M14 melanoma): 66 µM | TGI (MOLT-4 leukemia): 45.7 µM | TGI (HCC-2998 colon): > 91.7 µM | TGI (A549 NSCLC): > 100 µM | TGI (U251 CNS): > 100 µM

CCC(=O)Nc1ccc(N2C(=O)/C(=C/c3ccc(OC)cc3)N=C2c2ccccc2)cc1
GI50 (A498 renal): 10.4 µM | TGI (A498 renal): > 50 µM | GI50 (BT-549 breast): 10.9 µM | TGI (BT-549 breast): 36.4 µM | GI50 (OVCAR-3 ovarian): > 50 µM | TGI (OVCAR-3 ovarian): > 50 µM | GI50 (M14 melanoma): 8.6 µM | TGI (M14 melanoma): 43.3 µM | GI50 (MOLT-4 leukemia): 1.06 µM | TGI (MOLT-4 leukemia): > 50 µM | GI50 (A549 NSCLC): 6.27 µM | TGI (A549 NSCLC): 27 µM | GI50 (MDA-MB-231 breast): 4.31 µM | TGI (MDA-MB-231 breast): 14.5 µM | GI50 (U251 CNS): 1.66 µM | TGI (U251 CNS): 8.87 µM

c1ccc2c(c1)CCc1c-2n[nH]c1-c1[nH]nc2c1CCc1ccccc1-2
TGI (A498 renal): > 100 µM | TGI (SK-OV-3 ovarian): > 100 µM | TGI (OVCAR-3 ovarian): > 100 µM | TGI (M14 melanoma): > 100 µM | TGI (MOLT-4 leukemia): > 100 µM | TGI (HCC-2998 colon): > 100 µM | TGI (A549 NSCLC): > 100 µM | TGI (U251 CNS): > 100 µM

CC1=C(C(=O)Nc2ccc(Cl)c(Cl)c2)C(c2ccc([N+](=O)[O-])cc2)C(C(=O)Nc2ccc(Cl)c(Cl)c2)=C(C)N1
TGI (A498 renal): 14.8 µM | TGI (SK-OV-3 ovarian): 24.8 µM | TGI (OVCAR-3 ovarian): 4.56 µM | TGI (M14 melanoma): 3.82 µM | TGI (MOLT-4 leukemia): > 100 µM | TGI (HCC-2998 colon): 4.98 µM | TGI (A549 NSCLC): 15.1 µM | TGI (U251 CNS): 11.5 µM

COc1cc(/C=C/c2ccc3c(Br)cc(Br)c(O)c3n2)ccc1O
GI50 (A498 renal): 9.43 µM | TGI (A498 renal): 21.8 µM | GI50 (SK-OV-3 ovarian): 6.62 µM | TGI (SK-OV-3 ovarian): 31.8 µM | GI50 (BT-549 breast): 2.61 µM | TGI (BT-549 breast): 13.6 µM | GI50 (OVCAR-3 ovarian): 1.66 µM | TGI (OVCAR-3 ovarian): 9.12 µM | GI50 (M14 melanoma): 1.61 µM | TGI (M14 melanoma): 10.6 µM | GI50 (MOLT-4 leukemia): 0.606 µM | TGI (MOLT-4 leukemia): 7.04 µM | GI50 (A549 NSCLC): 1.21 µM | TGI (A549 NSCLC): 12.9 µM | GI50 (MDA-MB-231 breast): 7.39 µM | TGI (MDA-MB-231 breast): 22 µM | GI50 (U251 CNS): 0.636 µM | TGI (U251 CNS): 10.9 µM

CC(CO)(Nc1ccc([N+](=O)[O-])cc1[N+](=O)[O-])C(=O)O (centres undefined)
TGI (BT-549 breast): 67.2 µM | TGI (OVCAR-3 ovarian): 42 µM | TGI (M14 melanoma): > 100 µM | TGI (HCC-2998 colon): 43.6 µM | TGI (A549 NSCLC): > 100 µM | TGI (MDA-MB-231 breast): > 100 µM | TGI (U251 CNS): 49.2 µM

O=Cc1ccc2c(c1I)OCO2
TGI (A498 renal): > 100 µM | TGI (SK-OV-3 ovarian): > 100 µM | TGI (OVCAR-3 ovarian): > 100 µM | TGI (M14 melanoma): > 100 µM | TGI (MOLT-4 leukemia): > 100 µM | TGI (HCC-2998 colon): > 100 µM | TGI (A549 NSCLC): > 100 µM | TGI (U251 CNS): > 100 µM

O=C1C(OCCOc2ccccc2)=C(OCCOc2ccccc2)C(=O)c2ccccc21
GI50 (A498 renal): 18.2 µM | TGI (A498 renal): > 100 µM | GI50 (SK-OV-3 ovarian): 23.1 µM | TGI (SK-OV-3 ovarian): > 100 µM | GI50 (BT-549 breast): > 100 µM | TGI (BT-549 breast): > 100 µM | GI50 (OVCAR-3 ovarian): 6.5 µM | TGI (OVCAR-3 ovarian): > 100 µM | GI50 (MOLT-4 leukemia): > 100 µM | TGI (MOLT-4 leukemia): > 100 µM | GI50 (HCC-2998 colon): 11.6 µM | TGI (HCC-2998 colon): > 100 µM | GI50 (A549 NSCLC): 4.62 µM | TGI (A549 NSCLC): > 100 µM | GI50 (MDA-MB-231 breast): > 100 µM | TGI (MDA-MB-231 breast): > 100 µM | GI50 (U251 CNS): 5 µM | TGI (U251 CNS): > 100 µM
